The structures appear in SMILES notation.

The subject of data set [1] is hES cells (embryoid bodies). The protocol:
In this experiment, hES cells were maintained on primary mouse embryonic fibroblasts in serum-free medium according to standard methods.
The EBs were fed every other day.
Various analogs of butyrate were also tested at 5 mM.

For data set [2], the system named is hES derived embryoid bodies. The data set is described as follows: Marker analysis by immunocytochemistry, PAS glycogen stain and BrdU labelling. Format: cell-based, human. The conditions noted are these: 20% FBS and 5 mM sodium n-butyrate. The protocol: The morphology of the differentiated cells was remarkably uniform, showing a large polygonal surface and binucleated center characteristic of mature hepatocytes.
On the sixth day after plating in the differentiation agent, the cells were analyzed for expression of markers by RT-PCR and immunocytochemistry. Glycogen content in these cells was determined using periodic acid Schiff stain. The number of cells in S phase of cell cycle was determined by incubating the cells with 10 μM BrdU on day 5 after plating, and subsequently staining with anti-BrdU antibody 24 hours later.
A general note: Uptake of a labelled nucleoside into DNA is a usual measure of proliferation.

Turning to `CC(/C=C/C(=O)NO)=C\[C@@H](C)C(=O)c1ccc(N(C)C)cc1` [Trichostatin A], the toxicity to cells entry in data set [1] (at 2.5-100 μM) was “toxic”. In addition, the hepatocyte differentiation entry in data set [1] (at 10-50 nM) was “ineffective”. Moreover, the “hepatocyte differentiation and selection against other cell types” value in data set [1] (at 75-100 nM) is “appeared both to induce hepatocyte differentiation, and to select against survival of other cell types”.

As to `CCCC(=O)[O-].[Na+]` [sodium n-butyrate], the “% positive cells, BrdU staining” value in data set [2] (10 μM BrdU on day 5, stained 24 hours later) came out at 16%. Moreover, the “% positive cells, Glycogen staining” value in data set [2] (periodic acid Schiff stain) worked out at 60%. Further, in data set [2] (sixth day after plating), the “% positive cells, Albumin” value is 55%; the “% positive cells, CK8” value is reported as 100%; the “% positive cells, CK18” value amounted to 100%; the “% positive cells, CK19” value was determined as 100%. In addition, in data set [2] (sixth day after plating), the “% positive cells, Desmin” value amounted to 0%; the “% positive cells, α1-antitrypsin” value was 90%; the “% positive cells, α-fetoprotein” value is recorded as 0%. Besides, in data set [1] (EBs plated in 20% FBS and 5 mM sodium butyrate), the “cell survival one day after plating” value was “large proportion of apparently dead cells”.
